Values after ≈ are worked out from the molar mass of the structure shown.
How the values were obtained:
Test in all cases: ≥ marks a high value that may be exact or a test limit, other limits are often not marked, values filed in µg/mL are converted to µM
[1] = test system: Enterococcus faecalis ATCC 29212
[2] = test system: Escherichia coli ATCC 35218
[3] = test system: Pseudomonas aeruginosa ATCC 27853
[4] = test system: Staphylococcus aureus ATCC 25325
[5] = test system: Acinetobacter baumannii ATCC 19606
[6] = test system: Aspergillus fumigatus
[7] = test system: Bibersteinia trehalosi
[8] = test system: Corynebacterium pseudotuberculosis ATCC 19410
[9] = test system: Escherichia coli ATCC 25922
[10] = test system: Fusobacterium nucleatum ATCC 25586
[11] = test system: Klebsiella aerogenes ATCC 13048
[12] = test system: Klebsiella pneumoniae ATCC 13883
[13] = test system: Klebsiella pneumoniae
[14] = test system: Mannheimia haemolytica Serovar 1
[15] = test system: Mannheimia haemolytica Serovar 2
[16] = test system: Mannheimia haemolytica Serovar 6
[17] = test system: Pasteurella multocida
[18] = test system: Pseudomonas aeruginosa
[19] = test system: Salmonella enterica subsp. arizonae
[20] = test system: Staphylococcus aureus ATCC 29213
[21] = test system: Staphylococcus aureus ATCC 43300
[22] = test system: Staphylococcus aureus
[23] = test system: Streptococcus mutans Ingbritt
[24] = test system: Bacillus anthracis Sterne 34F2
[25] = test system: Bacillus subtilis ATCC 9372
[26] = test system: Burkholderia thailandensis
[27] = test system: Bacillus megaterium Bm11
[28] = test system: Escherichia coli D21
[29] = test system: Escherichia coli ML-35
[30] = test system: Salmonella enterica subsp. enterica serovar Typhimurium ATCC 14028
[31] = test system: Serratia marcescens ATCC 8100
[32] = test system: Staphylococcus epidermidis ATCC 12228
[33] = test system: Acinetobacter sp.
[34] = test system: Bacillus subtilis ATCC 6633
[35] = test system: Escherichia coli ATCC 11775
[36] = test system: Escherichia coli
[37] = test system: Pseudomonas aeruginosa ATCC 25668
[38] = test system: Aspergillus flavus ATCC 9643
[39] = test system: Aspergillus niger ATCC 6275
[40] = test system: Candida albicans ATCC 10231
[41] = test system: Cryptococcus neoformans ATCC 32045
[42] = test system: Listeria monocytogenes CMCC 54002
[43] = test system: Saccharomyces cerevisiae ATCC 9763
[44] = test system: Salmonella typhimurium CMCC 50013
[45] = test system: Shigella dysenteriae CMCC 51302
[46] = test system: Streptococcus pyogenes ATCC 12344
[47] = test system: Trichophyton rubrum ATCC 28188

CC(C)[C@H](NC(=O)[C@H](Cc1cnc[nH]1)NC(=O)[C@H](C)NC(=O)[C@H](C)NC(=O)[C@H](CCCCN)NC(=O)[C@H](CCCCN)NC(=O)[C@H](Cc1ccccc1)NC(=O)[C@H](Cc1ccccc1)NC(=O)[C@H](CO)NC(=O)CNC(=O)[C@H](Cc1c[nH]c2ccccc12)NC(=O)CN)C(=O)NCC(=O)O [GWGSFFKKAAHVG]
MIC [1]: 57 µM (≈ 79.3 µg/mL) | MIC [2]: ≥ 43.6 µM | MIC [3]: 52 µM (≈ 72.4 µg/mL) | MIC [4]: ≥ 58 µM

CC[C@H](C)[C@H](NC(=O)[C@H](CCCN=C(N)N)NC(=O)[C@H](CCCN=C(N)N)NC(=O)[C@H](CC(C)C)NC(=O)[C@H](CC(N)=O)NC(=O)[C@@H](N)CCCCN)C(=O)N[C@H](C(=O)N[C@@H](CCCN=C(N)N)C(=O)N[C@@H](CCCCN)C(=O)N[C@H](C(=O)N[C@H](C(=O)N[C@@H](Cc1cnc[nH]1)C(=O)N[C@H](C(=O)N[C@H](C(=O)N[C@@H](CCCCN)C(=O)N[C@@H](CCCCN)C(=O)N[C@@H](Cc1ccc(O)cc1)C(=O)NCC(=O)O)[C@@H](C)CC)[C@@H](C)CC)[C@@H](C)CC)[C@@H](C)CC)[C@@H](C)CC [KNLRRIIRKIIHIIKKYG]
MIC [5]: 2.6 µM (≈ 5.88 µg/mL) | MIC [6]: 4.42 µM (≈ 10 µg/mL) | MIC [7]: 1.02 µM (≈ 2.3 µg/mL) | MIC [8]: 8.84 µM (≈ 20 µg/mL) | MIC [1]: 78.8 µM (≈ 178 µg/mL) | MIC [9]: 9.6 µM (≈ 21.7 µg/mL) | MIC [10]: 4.2 µM (≈ 9.5 µg/mL) | MIC [11]: ≥ 45.9 µM | MIC [12]: 7.7 µM (≈ 17.4 µg/mL) | MIC [13]: 0.353 µM (≈ 0.8 µg/mL) | MIC [14]: 0.663 µM (≈ 1.5 µg/mL) | MIC [15]: 0.265 µM (≈ 0.6 µg/mL) | MIC [16]: 0.0884 µM (≈ 0.2 µg/mL) | MIC [17]: 0.265 µM (≈ 0.6 µg/mL) | MIC [18]: 0.625 µM (≈ 1.41 µg/mL) | MIC [19]: 2.96 µM (≈ 6.7 µg/mL) | MIC [20]: 138 µM (≈ 313 µg/mL) | MIC [21]: > 250 µM | MIC [22]: 6.63 µM (≈ 15 µg/mL) | MIC [23]: 16.5 µM (≈ 37.3 µg/mL)

CSCC[C@H](NC(=O)[C@@H](NC(=O)[C@H](CC(N)=O)NC(C)=O)C(C)C)C(=O)N[C@H](C(=O)N[C@@H](Cc1ccc(O)cc1)C(=O)N[C@@H](Cc1c[nH]c2ccccc12)C(=O)N[C@@H](Cc1c[nH]c2ccccc12)C(=O)N[C@@H](CC(C)C)C(=O)N[C@@H](CC(=O)O)C(=O)N1CCC[C@H]1C(=O)N1CCC[C@H]1C(=O)N[C@@H](CC(C)C)C(N)=O)[C@@H](C)O [NVMTYWWLDPPL]
MIC [24]: ≥ 100 µM | MIC [25]: ≥ 100 µM | MIC [26]: ≥ 50 µM

CC(C)C[C@H](NC(=O)[C@H](Cc1ccc(O)cc1)NC(=O)[C@@H]1CCCN1C(=O)[C@@H]1CCCN1C(=O)[C@H](CCCN=C(N)N)NC(=O)[C@@H]1CCCN1C(=O)[C@H](CCCN=C(N)N)NC(=O)[C@H](CCCN=C(N)N)NC(=O)[C@@H](N)CCCN=C(N)N)C(=O)N1CCC[C@H]1C(=O)N[C@@H](CCCN=C(N)N)C(=O)N1CCC[C@H]1C(=O)N[C@@H](CCCN=C(N)N)C(=O)N1CCC[C@H]1C(=O)N1CCC[C@H]1C(=O)O [RRRPRPPYLPRPRPP]
MIC [27]: 8 µM (≈ 15.3 µg/mL) | MIC [28]: 0.5 µM (≈ 0.956 µg/mL) | MIC [29]: 1 µM (≈ 1.91 µg/mL) | MIC [30]: 0.125 µM (≈ 0.239 µg/mL) | MIC [31]: 4 µM (≈ 7.65 µg/mL) | MIC [32]: > 64 µM

CC[C@H](C)[C@H](NC(C)=O)C(=O)N[C@@H](CCCCN)C(=O)N[C@@H](Cc1c[nH]c2ccccc12)C(=O)N[C@@H](C)C(=O)NCC(=O)N[C@@H](CCCCN)C(=O)N[C@@H](Cc1c[nH]c2ccccc12)C(=O)N[C@@H](Cc1c[nH]c2ccccc12)C(=O)N[C@@H](CCCCN)C(=O)N[C@@H](CC(C)C)C(=O)N[C@@H](Cc1ccccc1)C(=O)N[C@@H](CCCCN)C(N)=O [IKWAGKWWKLFK]
MIC [33]: 2.51 µM (≈ 4.1 µg/mL) | MIC [34]: 2.51 µM (≈ 4.1 µg/mL) | MIC [35]: 0.629 µM (≈ 1.03 µg/mL) | MIC [36]: 1.26 µM (≈ 2.05 µg/mL) | MIC [37]: 0.629 µM (≈ 1.03 µg/mL)

CC(C)C[C@H](NC(=O)CN)C(=O)N[C@@H](C)C(=O)N[C@@H](CCCN=C(N)N)C(=O)N[C@@H](C)C(=O)N[C@@H](CC(C)C)C(=O)N[C@H](C(=O)N[C@@H](CCCN=C(N)N)C(=O)N[C@@H](CC(C)C)C(=O)N[C@@H](CC(C)C)C(=O)N[C@@H](CCCN=C(N)N)C(=O)N[C@@H](CCC(N)=O)C(=O)N[C@@H](CC(C)C)C(=O)N[C@H](C(=O)N[C@@H](CCCN=C(N)N)C(=O)N[C@@H](CCC(N)=O)C(=O)N[C@@H](CC(C)C)C(=O)N[C@H](C(=O)N[C@@H](CCCN=C(N)N)C(=O)N[C@@H](C)C(=O)O)[C@@H](C)O)[C@@H](C)O)[C@@H](C)O [GLARALTRLLRQLTRQLTRA]
MIC [38]: 8 µM (≈ 18.5 µg/mL) | MIC [39]: ≥ 32 µM | MIC [40]: 8 µM (≈ 18.5 µg/mL) | MIC [41]: 16 µM (≈ 36.9 µg/mL) | MIC [42]: 4 µM (≈ 9.23 µg/mL) | MIC [43]: 16 µM (≈ 36.9 µg/mL) | MIC [44]: 2 µM (≈ 4.62 µg/mL) | MIC [45]: 4 µM (≈ 9.23 µg/mL) | MIC [46]: 4 µM (≈ 9.23 µg/mL) | MIC [47]: ≥ 32 µM

Source: DBAASP
